Experimental data reported in patent US20260265195A1, “SARM1 MODULATORS, PREPARATIONS, AND USES THEREOF” (SIRONAX LTD, priority 2022, published 2026).

Biological target: T1, SARM1 (50-724) (Homo sapiens, UniProt Q6SZW1)
T1 construct: Purified SARM1 (50-724) with a final concentration of 2 nM
T1 sequence (Q6SZW1 50-724): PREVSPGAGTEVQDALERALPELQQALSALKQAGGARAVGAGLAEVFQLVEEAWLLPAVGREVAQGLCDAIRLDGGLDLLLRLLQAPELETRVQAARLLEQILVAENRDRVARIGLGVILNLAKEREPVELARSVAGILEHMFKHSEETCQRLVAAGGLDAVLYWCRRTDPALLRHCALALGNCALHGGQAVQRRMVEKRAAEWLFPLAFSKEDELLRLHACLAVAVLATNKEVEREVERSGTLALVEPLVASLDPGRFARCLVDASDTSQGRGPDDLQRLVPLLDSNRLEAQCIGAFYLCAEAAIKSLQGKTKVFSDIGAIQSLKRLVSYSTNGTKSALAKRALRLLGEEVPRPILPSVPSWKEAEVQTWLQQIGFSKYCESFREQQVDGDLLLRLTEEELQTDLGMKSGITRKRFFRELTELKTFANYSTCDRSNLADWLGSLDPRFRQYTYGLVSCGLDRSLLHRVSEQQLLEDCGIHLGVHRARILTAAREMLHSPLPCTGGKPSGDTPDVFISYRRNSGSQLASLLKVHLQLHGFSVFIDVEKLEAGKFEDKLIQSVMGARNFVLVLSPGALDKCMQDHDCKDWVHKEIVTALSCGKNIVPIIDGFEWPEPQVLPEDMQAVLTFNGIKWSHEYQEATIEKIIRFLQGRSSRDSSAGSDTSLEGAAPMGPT
Assay: SARM1 (50-724) enzymatic assay (NMN-activated NAD+ hydrolysis, LC-MS/MS readout)
Type: biochemical
Conditions: purified SARM1 (50-724) 2 nM, 200 μM NMN activator, 100 μM NAD+ substrate, 1 h at room temperature, read-out: IC50 (SARM1 inhibitory activity)
Summary of the method: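 Purified human SARM1 (50-724), 2 nM final in DPBS, pre-incubated 15 min at RT with compound (1% DMSO), then started with 200 μM NMN activator and 100 μM NAD+. After 1 h at RT, quenched with 70% acetonitrile; analysed by LC-MS/MS.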

SMILES | IC50
CS(=O)(=O)CCCN(C(=O)c1nc2cc(C(F)(F)F)ccc2[nH]1)c1cccc(F)c1Br [Compound 227, N-(2-bromo-3-fluorophenyl)-N-(3-(methylsulfonyl)propyl)-5-(trifluoromethyl)-1H-benzo[d]imidazole-2-carboxamide] | ≤ 100 nM
Cc1ccc2[nH]c(C(=O)N(C)C3CCCC3)c(CNc3ncc[nH]3)c2c1 [Compound 77, 3-(((1H-imidazol-2-yl)amino)methyl)-N-cyclopentyl-N,5-dimethyl-1H-indole-2-carboxamide] | ≥ 1000 nM
Cc1nsc(N(CC2(F)COC2)C(=O)c2nc3cc(C(F)(F)F)ccc3[nH]2)c1Cl [Compound 188, N-(4-chloro-3-methylisothiazol-5-yl)-N-((3-fluorooxetan-3-yl)methyl)-5-(trifluoromethyl)-1H-benzo[d]imidazole-2-carboxamide] | 101 to 500 nM
Cc1ccc2[nH]c(C(=O)N(CCN(C)C)C3CCCC3)nc2c1 [Compound 64, N-cyclopentyl-N-(2-(dimethylamino)ethyl)-5-methyl-1H-benzo[d]imidazole-2-carboxamide] | ≥ 1000 nM
Cc1ccc2[nH]c(C(=O)N(C)C3CCN(C(=O)OC(C)(C)C)CC3)c(CNc3ccccn3)c2c1 [Compound 85, tert-butyl 4-(N,5-dimethyl-3-((pyridin-2-ylamino)methyl)-1H-indole-2-carboxamido)piperidine-1-carboxylate] | ≥ 1000 nM
O=C(c1nc2cc(C(F)(F)F)ccc2[nH]1)N(CCO)c1cccc(F)c1Cl [Compound 157, N-(2-chloro-3-fluorophenyl)-N-(2-hydroxyethyl)-5-(trifluoromethyl)-1H-benzo[d]imidazole-2-carboxamide] | ≤ 100 nM
CS(=N)(=O)CCCN(C(=O)c1nc2cc(C(F)(F)F)ccc2[nH]1)c1cccc(F)c1Cl (stereo not drawn) [Compound 224, N-(2-chloro-3-fluorophenyl)-N-(3-(S-methylsulfonimidoyl)propyl)-5-(trifluoromethyl)-1H-benzo[d]imidazole-2-carboxamide] | ≤ 100 nM
Cc1ccc2[nH]c(C(=O)N(C)c3cccc(Cl)c3Cl)c(CNc3nc(C(N)=O)c(C(C)C)s3)c2c1 [Compound 74, 2-(((2-((2,3-dichlorophenyl)(methyl)carbamoyl)-5-methyl-1H-indol-3-yl)methyl)amino)-5-isopropylthiazole-4-carboxamide] | ≤ 100 nM
CC(C)(O)CN(C(=O)c1nc2cc(C(F)(F)F)ccc2[nH]1)c1cccc(Cl)c1Cl [Compound 168, N-(2,3-dichlorophenyl)-N-(2-hydroxy-2-methylpropyl)-5-(trifluoromethyl)-1H-benzo[d]imidazole-2-carboxamide] | ≤ 100 nM
CN(C(=O)c1nc2cc(C(F)(F)F)ccc2[nH]1)C1CCCC1 [Compound 48, N-cyclopentyl-N-methyl-5-(trifluoromethyl)-1H-benzo[d]imidazole-2-carboxamide] | ≤ 100 nM
O=C(c1nc2cc(C(F)(F)F)ccc2[nH]1)N(CC1(F)COC1)c1cccc(F)c1Cl [Compound 186, N-(2-chloro-3-fluorophenyl)-N-((3-fluorooxetan-3-yl)methyl)-5-(trifluoromethyl)-1H-benzo[d]imidazole-2-carboxamide] | ≤ 100 nM
O=C(c1nc2cc(C(F)(F)F)ccc2[nH]1)N(c1cccc(Cl)c1Cl)C1CNC1 [Compound 117, N-(azetidin-3-yl)-N-(2,3-dichlorophenyl)-5-(trifluoromethyl)-1H-benzo[d]imidazole-2-carboxamide] | ≥ 1000 nM
CC1(c2ccc3[nH]c(C(=O)N(CC(F)(F)CO)c4cccc(F)c4Cl)nc3c2)COC1 [Compound 223, N-(2-chloro-3-fluorophenyl)-N-(2,2-difluoro-3-hydroxypropyl)-5-(3-methyloxetan-3-yl)-1H-benzo[d]imidazole-2-carboxamide] | ≤ 100 nM
O=C(c1nc2cc(CO)ccc2[nH]1)N(CCO)c1cccc(Cl)c1Cl [Compound 171] | 101 to 500 nM
O=C(c1nc2cc(C(F)(F)F)ccc2[nH]1)N(c1cccc(Cl)c1Cl)C1CC(O)C1 (stereo not drawn) [Compound 193, N-(2,3-dichlorophenyl)-N-(3-hydroxycyclobutyl)-5-(trifluoromethyl)-1H-benzo[d]imidazole-2-carboxamide] | ≤ 100 nM
Cc1c(Cl)cccc1N(CCO)C(=O)c1nc2cc(C(F)(F)F)ccc2[nH]1 [Compound 137, N-(3-chloro-2-methylphenyl)-N-(2-hydroxyethyl)-5-(trifluoromethyl)-1H-benzo[d]imidazole-2-carboxamide] | ≤ 100 nM

Next, values leading:

IC50 | SMILES
≤ 100 nM | O=C(c1nc2cc(C(F)(F)F)ccc2[nH]1)N(CC(F)(F)CO)c1cccc(Cl)c1Cl [Compound 112, N-(2,3-dichlorophenyl)-N-(2,2-difluoro-3-hydroxypropyl)-5-(trifluoromethyl)-1H-benzo[d]imidazole-2-carboxamide]
≤ 100 nM | Cc1ccc2[nH]c(C(=O)N(CCO)c3cccc(Cl)c3Cl)nc2c1 [Compound 98, N-(2,3-dichlorophenyl)-N-(2-hydroxyethyl)-5-methyl-1H-benzo[d]imidazole-2-carboxamide]
101 to 500 nM | Cc1ccc2[nH]c(C(=O)N(C)C3CCCC3)c(CCO)c2c1 [Compound 36, N-cyclopentyl-3-(2-hydroxyethyl)-N,5-dimethyl-1H-indole-2-carboxamide]
101 to 500 nM | Cn1cc(-c2ccc3[nH]c(C(=O)N(CCO)c4cccc(Cl)c4Cl)nc3c2)cn1 [Compound 139, N-(2,3-dichlorophenyl)-N-(2-hydroxyethyl)-5-(1-methyl-1H-pyrazol-4-yl)-1H-benzo[d]imidazole-2-carboxamide]
≤ 100 nM | O=C(CN(C(=O)c1nc2cc(C(F)(F)F)ccc2[nH]1)c1cccc(Cl)c1Cl)N1CCC1 [Compound 202, N-(2-(azetidin-1-yl)-2-oxoethyl)-N-(2,3-dichlorophenyl)-5-(trifluoromethyl)-1H-benzo[d]imidazole-2-carboxamide]
≤ 100 nM | NC(=O)CN(C(=O)c1nc2cc(C(F)(F)F)ccc2[nH]1)c1cccc(Cl)c1Cl [Compound 141, N-(2-amino-2-oxoethyl)-N-(2,3-dichlorophenyl)-5-(trifluoromethyl)-1H-benzo[d]imidazole-2-carboxamide]
≤ 100 nM | Cc1ccc2[nH]c(C(=O)N(C)C3CCCC3)c(CNc3ncco3)c2c1 [Compound 80, N-cyclopentyl-N,5-dimethyl-3-((oxazol-2-ylamino)methyl)-1H-indole-2-carboxamide]
≤ 100 nM | O=C(c1nc2cc(Cl)cc(F)c2[nH]1)N(CC(F)(F)CO)c1cccc(F)c1Cl [Compound 232, 5-chloro-N-(2-chloro-3-fluorophenyl)-N-(2,2-difluoro-3-hydroxypropyl)-7-fluoro-1H-benzo[d]imidazole-2-carboxamide]
≤ 100 nM | NC(=O)C(F)(F)CN(C(=O)c1nc2cc(Cl)cc(F)c2[nH]1)c1ccc(F)c(F)c1Cl [Compound 231]
101 to 500 nM | Cc1ccnc(N(CC(F)(F)CO)C(=O)c2nc3cc(C(F)(F)F)ccc3[nH]2)c1Cl [Compound 156, N-(3-chloro-4-methylpyridin-2-yl)-N-(2,2-difluoro-3-hydroxypropyl)-5-(trifluoromethyl)-1H-benzo[d]imidazole-2-carboxamide]
501 to 1000 nM | CN(C(=O)c1nc2cc(C(F)(F)F)ccc2[nH]1)c1ccncc1OC(F)(F)F [Compound 237, N-methyl-N-(3-(trifluoromethoxy)pyridin-4-yl)-5-(trifluoromethyl)-1H-benzo[d]imidazole-2-carboxamide]
